From patent publication US9642831B2, “Substituted chromanes and method of use” (AbbVie S.á.r.l., priority 2014, dated 2017)

Target: F508delCFTR (Homo sapiens, UniProt P13569, DEL508-508)
Assay: Cell Surface Expression-Horse Radish Peroxidase (CSE-HRP) assay
Format: cell-based
Set-up: expressed in transfected cells; host or cells: CFBE41o- human lung derived epithelial cell line, doxycycline-inducible
Details: CFBE4lo-F508delCFTR-HRP cells; for EC50: 18-24 hours at 33° C., 8-point curve, highest concentration 20 μM, luminescence readout; for Emax: maximum % activity at any tested concentration, normalized to on-plate positive control (3 μM Example 1)
Excerpt: Cell Surface Expression-Horse Radish Peroxidase (CSE-HRP) Assay:
A cellular assay for measuring the F508delCFTR cell surface expression after correction with test compounds was developed in human lung derived epithelial cell line (CFBE4lo-) (Veit G et al, (2012) Mol Biol Cell. 23(21): 4188-4202). This was achieved by expressing the F508delCFTR mutation along with a horseradish peroxidase (HRP) in the fourth exofacial loop and then measuring the HRP activity using luminescence readout from these cells, CFBE4lo-F508delCFTR-HRP, that were incubated overnight with the test corrector compounds. Briefly, for this primary assay, the CFBE4lo-F508delCFTR-HRP cells were plated in 384-well plates (Greiner Bio-one; Cat 781080) at 4,000 cells/well along with 0.5 μg/mL doxycycline to induce the F508delCFTR-HRP expression and further incubated at 37° C., 5% CO2 for 72 hours. The test compounds were then added at the required concentrations and further incubated for 18-24 hours at 33° C. The highest concentration tested was 20 μM with an 8-point concentration response curve using a 3-fold dilution. Three replicate plates were run to determine one EC50. All plates contained negative controls (dimethyl sulfoxide, DMSO) and positive controls (3 μM of 3-[(2R,4R)-4-({[1-(2,2-difluoro-1,3-benzodioxol-5-yl)cyclopropyl]carbonyl}amino)-7-methoxy-3,4-dihydro-2H-chromen-2-yl]benzoic acid) as well as on-plate concentration response of the positive control. Post incubation, the plates were washed 5× times with Dulbecco's phosphate buffered saline (DPBS), followed by the addition of the HRP substrate, luminol (50 μL), and measuring the HRP activity using luminescence readout on EnVision® Multilabel Plate Reader (Perkin Elmer; product number 2104-0010). The raw counts from the experiment are analyzed using Accelrys® Assay Explorer v3.3.
Z′ greater than 0.5 was used as passing quality control criteria for the plates.
The Z′ is defined as: 1−[3*SDPositive Control+3*SDNegative Control/Absolute(MeanPositive Control−MeanNegative Control)] wherein “SD” is standard deviation.
The % activity measured at each of the 8 test concentrations of the test compound was normalized to the on-plate positive control using the following formula: % activity=[(test compound response−DMSO response)/(positive control response−DMSO response)]*100
The maximum % activity achieved for the test compound at any tested concentration is presented in Table 1 along with the EC50 calculated using the following general sigmoidal curve with variable Hill slope equation (described as Model 42 in the Accelrys® Assay Explorer v3.3 software): y=(a−d)/(1+(x/c)^b)+d
General sigmoidal curve with concentration, response, top, bottom, EC50 and Hill slope.
This model describes a sigmoidal curve with an adjustable baseline, a. The equation can be used to fit curves where response is either increasing or decreasing with respect to the independent variable, “x”.
“x” is a concentration of drug under test.
“a” is the maximum response, and “d” is the minimum response
“c” is the inflection point (EC50) for the curve. That is, “y” is halfway between the lower and upper asymptotes when x=c.
“b” is the slope-factor or Hill coefficient. The sign of b is positive when the response increases with increasing dose and is negative when the response decreases with increasing dose (inhibition).

Sequence of F508delCFTR (P13569 with tags, fused parts or gaps DEL508-508): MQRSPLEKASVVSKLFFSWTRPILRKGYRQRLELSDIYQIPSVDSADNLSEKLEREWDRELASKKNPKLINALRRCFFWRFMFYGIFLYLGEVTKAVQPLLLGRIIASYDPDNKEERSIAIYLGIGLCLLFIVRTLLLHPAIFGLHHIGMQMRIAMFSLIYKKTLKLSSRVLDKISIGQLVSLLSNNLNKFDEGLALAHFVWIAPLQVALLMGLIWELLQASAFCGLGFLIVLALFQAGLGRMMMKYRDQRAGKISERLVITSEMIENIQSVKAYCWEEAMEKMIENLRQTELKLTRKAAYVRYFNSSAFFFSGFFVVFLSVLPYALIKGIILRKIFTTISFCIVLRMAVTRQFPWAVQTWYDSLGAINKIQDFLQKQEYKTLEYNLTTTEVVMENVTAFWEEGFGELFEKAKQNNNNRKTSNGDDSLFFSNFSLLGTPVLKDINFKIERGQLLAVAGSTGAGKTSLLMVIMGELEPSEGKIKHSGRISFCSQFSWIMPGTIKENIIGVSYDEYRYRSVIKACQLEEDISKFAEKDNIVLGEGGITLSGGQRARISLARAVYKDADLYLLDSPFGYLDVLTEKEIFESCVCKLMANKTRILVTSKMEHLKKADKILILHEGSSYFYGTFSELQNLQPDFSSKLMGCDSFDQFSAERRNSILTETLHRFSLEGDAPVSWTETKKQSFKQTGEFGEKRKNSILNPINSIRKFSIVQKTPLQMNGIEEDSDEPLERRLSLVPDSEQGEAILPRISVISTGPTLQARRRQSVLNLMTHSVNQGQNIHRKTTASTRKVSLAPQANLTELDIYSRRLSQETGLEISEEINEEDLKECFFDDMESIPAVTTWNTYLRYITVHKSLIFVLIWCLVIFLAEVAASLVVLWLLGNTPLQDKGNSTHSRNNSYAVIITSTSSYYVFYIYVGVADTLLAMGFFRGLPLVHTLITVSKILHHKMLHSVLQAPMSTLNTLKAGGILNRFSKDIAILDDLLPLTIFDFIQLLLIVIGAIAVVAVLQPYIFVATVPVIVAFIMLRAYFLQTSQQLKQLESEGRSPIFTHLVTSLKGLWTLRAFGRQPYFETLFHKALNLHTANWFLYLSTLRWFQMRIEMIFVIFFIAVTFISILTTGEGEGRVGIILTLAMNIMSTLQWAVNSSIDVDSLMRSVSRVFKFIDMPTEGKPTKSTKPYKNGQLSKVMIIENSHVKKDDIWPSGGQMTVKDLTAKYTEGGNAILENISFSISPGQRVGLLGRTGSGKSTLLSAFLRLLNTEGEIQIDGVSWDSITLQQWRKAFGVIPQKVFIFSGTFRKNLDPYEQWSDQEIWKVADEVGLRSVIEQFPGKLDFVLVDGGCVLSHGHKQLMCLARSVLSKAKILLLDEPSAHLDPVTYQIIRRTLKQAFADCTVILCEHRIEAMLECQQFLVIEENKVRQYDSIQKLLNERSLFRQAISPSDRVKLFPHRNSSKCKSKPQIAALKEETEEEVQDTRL

EC50 [nM] | Emax [%] | SMILES
3600 | 70 | COC(=O)[C@H]1C[C@H](NC(=O)C2(c3ccc4c(c3)OC(F)(F)O4)CC2)c2ccc(OC)cc2O1 (racemic) [Example 131, methyl rac-(2R,4S)-4-({[1-(2,2-difluoro-1,3-benzodioxol-5-yl)cyclopropyl]carbonyl}amino)-7-methoxy-3,4-dihydro-2H-chromene-2-carboxylate]
> 20000 | 4 | COc1ccc2c(c1)O[C@@H](C(=O)O)C[C@@H]2NC(=O)C1(c2ccc3c(c2)OC(F)(F)O3)CC1 (racemic) [Example 134, rac-(2R,4S)-4-({[1-(2,2-difluoro-1,3-benzodioxol-5-yl)cyclopropyl]carbonyl}amino)-7-methoxy-3,4-dihydro-2H-chromene-2-carboxylic acid]
2040 | 78 | COC(=O)C12CC([C@H]3C[C@@H](NC(=O)C4(c5ccc6c(c5)OC(F)(F)O6)CC4)c4ccc(OC)cc4O3)(C1)C2 (racemic) [Example 147, methyl rac-3-[(2R,4R)-4-({[1-(2,2-difluoro-1,3-benzodioxol-5-yl)cyclopropyl]carbonyl}amino)-7-methoxy-3,4-dihydro-2H-chromen-2-yl]bicyclo[1.1.1]pentane-1-carboxylate]
1530 | 85 | CCOC(=O)c1ccc([C@H]2C[C@H](NC(=O)C3(c4ccc5c(c4)OC(F)(F)O5)CC3)c3ccccc3O2)nc1 (racemic) [Example 149, ethyl rac-6-[(2R,4S)-4-({[1-(2,2-difluoro-1,3-benzodioxol-5-yl)cyclopropyl]carbonyl}amino)-3,4-dihydro-2H-chromen-2-yl]pyridine-3-carboxylate]
420 | 106 | CCOC(=O)c1ccc([C@H]2C[C@@H](NC(=O)C3(c4ccc5c(c4)OC(F)(F)O5)CC3)c3ccccc3O2)nc1 (racemic) [Example 150, ethyl rac-6-[(2R,4R)-4-({[1-(2,2-difluoro-1,3-benzodioxol-5-yl)cyclopropyl]carbonyl}amino)-3,4-dihydro-2H-chromen-2-yl]pyridine-3-carboxylate]
1900 | 84 | O=C(O)c1ccc([C@H]2C[C@H](NC(=O)C3(c4ccc5c(c4)OC(F)(F)O5)CC3)c3ccccc3O2)nc1 (racemic) [Example 153, rac-6-[(2R,4S)-4-({[1-(2,2-difluoro-1,3-benzodioxol-5-yl)cyclopropyl]carbonyl}amino)-3,4-dihydro-2H-chromen-2-yl]pyridine-3-carboxylic acid]
670 | 106 | O=C(O)c1ccc([C@H]2C[C@@H](NC(=O)C3(c4ccc5c(c4)OC(F)(F)O5)CC3)c3ccccc3O2)nc1 (racemic) [Example 154, rac-6-[(2R,4R)-4-({[1-(2,2-difluoro-1,3-benzodioxol-5-yl)cyclopropyl]carbonyl}amino)-3,4-dihydro-2H-chromen-2-yl]pyridine-3-carboxylic acid]
3590 | 42 | CCOC(=O)[C@H]1C[C@@H](NC(=O)C2(c3ccc4c(c3)OC(F)(F)O4)CC2)c2ccc(OC)cc2O1 (racemic) [Example 163, ethyl rac-(2R,4R)-4-({[1-(2,2-difluoro-1,3-benzodioxol-5-yl)cyclopropyl]carbonyl}amino)-7-methoxy-3,4-dihydro-2H-chromene-2-carboxylate]
> 20000 | 2 | COc1ccc2c(c1)O[C@@H](C(=O)O)C[C@H]2NC(=O)C1(c2ccc3c(c2)OC(F)(F)O3)CC1 (racemic) [Example 164, rac-(2R,4R)-4-({[1-(2,2-difluoro-1,3-benzodioxol-5-yl)cyclopropyl]carbonyl}amino)-7-methoxy-3,4-dihydro-2H-chromene-2-carboxylic acid]
2000 | 65 | CCCN(CCO)C(=O)[C@H]1C[C@@H](NC(=O)C2(c3ccc4c(c3)OC(F)(F)O4)CC2)c2ccc(OC)cc2O1 (racemic) [Example 166, rac-(2R,4R)-4-({[1-(2,2-difluoro-1,3-benzodioxol-5-yl)cyclopropyl]carbonyl}amino)-N-(2-hydroxyethyl)-7-methoxy-N-propyl-3,4-dihydro-2H-chromene-2-carboxamide]
1080 | 66 | COc1ccc2c(c1)O[C@@H](C(=O)N(CCO)Cc1ccccc1)C[C@H]2NC(=O)C1(c2ccc3c(c2)OC(F)(F)O3)CC1 (racemic) [Example 167, rac-(2R,4R)—N-benzyl-4-({[1-(2,2-difluoro-1,3-benzodioxol-5-yl)cyclopropyl]carbonyl}amino)-N-(2-hydroxyethyl)-7-methoxy-3,4-dihydro-2H-chromene-2-carboxamide]
1160 | 67 | COc1ccc2c(c1)O[C@@H](C(=O)N(C)CC(O)c1ccccc1)C[C@H]2NC(=O)C1(c2ccc3c(c2)OC(F)(F)O3)CC1 (mixture of isomers) [Example 168, rac-(2R,4R)-4-({[1-(2,2-difluoro-1,3-benzodioxol-5-yl)cyclopropyl]carbonyl}amino)-N-(2-hydroxy-2-phenylethyl)-7-methoxy-N-methyl-3,4-dihydro-2H-chromene-2-carboxamide]
4900 | 38 | COc1ccc2c(c1)O[C@@H](C(=O)N1CCN(CCO)CC1)C[C@H]2NC(=O)C1(c2ccc3c(c2)OC(F)(F)O3)CC1 (racemic) [Example 169, rac-1-(2,2-difluoro-1,3-benzodioxol-5-yl)-N-[(2R,4R)-2-{[4-(2-hydroxyethyl)piperazin-1-yl]carbonyl}-7-methoxy-3,4-dihydro-2H-chromen-4-yl]cyclopropanecarboxamide]
1550 | 65 | COc1ccc2c(c1)O[C@@H](C(=O)NC(C)(C)CO)C[C@H]2NC(=O)C1(c2ccc3c(c2)OC(F)(F)O3)CC1 (racemic) [Example 170, rac-(2R,4R)-4-({[1-(2,2-difluoro-1,3-benzodioxol-5-yl)cyclopropyl]carbonyl}amino)-N-(1-hydroxy-2-methylpropan-2-yl)-7-methoxy-3,4-dihydro-2H-chromene-2-carboxamide]
2290 | 40 | COc1ccc2c(c1)O[C@@H](C(=O)NC(CO)c1ccccc1)C[C@H]2NC(=O)C1(c2ccc3c(c2)OC(F)(F)O3)CC1 (mixture of isomers) [Example 171, rac-(2R,4R)-4-({[1-(2,2-difluoro-1,3-benzodioxol-5-yl)cyclopropyl]carbonyl}amino)-N-(2-hydroxy-1-phenylethyl)-7-methoxy-3,4-dihydro-2H-chromene-2-carboxamide]
4080 | 66 | COc1ccc2c(c1)O[C@@H](C(=O)NC1CCS(=O)(=O)CC1)C[C@H]2NC(=O)C1(c2ccc3c(c2)OC(F)(F)O3)CC1 (racemic) [Example 172, rac-(2R,4R)-4-({[1-(2,2-difluoro-1,3-benzodioxol-5-yl)cyclopropyl]carbonyl}amino)-N-(1,1-dioxidotetrahydro-2H-thiopyran-4-yl)-7-methoxy-3,4-dihydro-2H-chromene-2-carboxamide]
2150 | 27 | COc1ccc2c(c1)O[C@@H](C(=O)NC1(C(F)(F)F)COC1)C[C@H]2NC(=O)C1(c2ccc3c(c2)OC(F)(F)O3)CC1 (racemic) [Example 173, rac-(2R,4R)-4-({[1-(2,2-difluoro-1,3-benzodioxol-5-yl)cyclopropyl]carbonyl}amino)-7-methoxy-N-[3-(trifluoromethyl)oxetan-3-yl]-3,4-dihydro-2H-chromene-2-carboxamide]
1730 | 55 | COc1ccc2c(c1)O[C@@H](C(=O)N1CCC(F)(F)CC1)C[C@H]2NC(=O)C1(c2ccc3c(c2)OC(F)(F)O3)CC1 (racemic) [Example 174, rac-1-(2,2-difluoro-1,3-benzodioxol-5-yl)-N-{(2R,4R)-2-[(4,4-difluoropiperidin-1-yl)carbonyl]-7-methoxy-3,4-dihydro-2H-chromen-4-yl}cyclopropanecarboxamide]
